Data set [1] is described as follows: Solubility comparison: cloud point on adding water to a DMSO solution. The class given is physicochemical. The conditions noted are these: upon dissolution in DMSO.
A short description of data set [2]: UV-Vis absorption spectrum. The data set is classed as physicochemical. The conditions noted are these: compared to compounds 1 and 2; FIG. 5.

For `Cn1c2c(c3ccccc31)C(SCCC(=O)ON1C(=O)CCC1=O)Sc1ccccc1-2` (stereo not drawn) [3a, 2,5-Dioxopyrrolidin-1-yl 3-((11-methyl-6,11-dihydrothiochromeno[4,3-b]indol-6-yl)thio)propanoate], the melting point was 90 to 96 °C (dec.). Besides, the “water added at which a cloud point formed” value in data set [1] stood at 30%. Moreover, the “absorbance at 355 nm” value in data set [2] was “high absorbance”.

As for `CCn1c2c(c3ccccc31)C(SCCC(=O)ON1C(=O)CCC1=O)Sc1ccccc1-2` (stereo not drawn) [3b, 2,5-Dioxopyrrolidin-1-yl 3-((11-ethyl-6,11-dihydrothiochromeno[4,3-b]indol-6-yl)thio)propanoate], the melting point is 82 to 87 °C (dec.).

Turning to `CCCn1c2c(c3ccccc31)C(SCCC(=O)ON1C(=O)CCC1=O)Sc1ccccc1-2` (stereo not drawn) [3c, 2,5-Dioxopyrrolidin-1-yl 3-((11-propyl-6,11-dihydrothiochromeno[4,3-b]indol-6-yl)thio)propanoate], the melting point was 77 to 82 °C (dec.).

With `CCCCn1c2c(c3ccccc31)C(SCCC(=O)ON1C(=O)CCC1=O)Sc1ccccc1-2` (stereo not drawn) [3d, 2,5-Dioxopyrrolidin-1-yl 3-((11-butyl-6, 11-dihydrothiochromeno[4,3-b]indol-6-yl)thio)propanoate], the melting point is 76 to 81 °C (dec.).

Source of the values: patent publication US10647723B2, “Thiochromene type compound and use thereof” (SOGANG UNIVERSITY RESEARCH FOUNDATION, priority 2015, dated 2020).
